Legend:
Test in all cases: KINOMEscan competition binding
Details in all cases: compound 10.0 µM
[1] = target: ERBB2 (human) (UniProt P04626)
[2] = target: MAP4K5 (human) (UniProt Q9Y4K4)
[3] = target: CDK5 (human) (UniProt Q00535)
[4] = target: PDGFRB (human) (UniProt P09619)
[5] = target: PRKACB (human) (UniProt P22694)
[6] = target: STK17A (human) (UniProt Q9UEE5)
[7] = target: MAPK15 (human) (UniProt Q8TD08)
[8] = target: RPS6KA6 KD1 (human) (UniProt Q9UK32)
[9] = target: LATS2 (human) (UniProt Q9NRM7)
[10] = target: LCK (human) (UniProt P06239)
[11] = target: CAMK2A (human) (UniProt Q9UQM7)
[12] = system: EIF2AK4 KD2 (human), Q9P2K8 [S808G]
[13] = target: AURKB (human) (UniProt Q96GD4)
[14] = target: ERBB4 (human) (UniProt Q15303)
[15] = target: CDK15 (human) (UniProt Q96Q40)
[16] = target: MKNK2 (human) (UniProt Q9HBH9)
[17] = target: MINK1 (human) (UniProt Q8N4C8)
[18] = target: CSNK2A1 (human) (UniProt P68400)
[19] = target: NTRK1 (human) (UniProt P04629)
[20] = target: NTRK2 (human) (UniProt Q16620)
[21] = target: HCK (human) (UniProt P08631)
[22] = target: ANKK1 (human) (UniProt Q8NFD2)
[23] = target: CDK17 (human) (UniProt Q00537)
[24] = target: EPHB1 (human) (UniProt P54762)
[25] = target: MAPK9 (human) (UniProt P45984)
[26] = target: MYLK (human) (UniProt Q15746)
[27] = target: MUSK (human) (UniProt O15146)
[28] = target: SRPK2 (human) (UniProt P78362)
[29] = target: DMPK (human) (UniProt Q09013)
[30] = target: ACVR2A (human) (UniProt P27037)
[31] = target: PRKACA (human) (UniProt P17612)
[32] = target: MAP2K4 (human) (UniProt P45985)
[33] = target: AKT2 (human) (UniProt P31751)
[34] = target: PAK1 (human) (UniProt Q13153)
[35] = target: MAP3K11 (human) (UniProt Q16584)
[36] = target: SRPK1 (human) (UniProt Q96SB4)
[37] = target: CLK2 (human) (UniProt P49760)
[38] = target: MAP3K9 (human) (UniProt P80192)
[39] = target: NEK1 (human) (UniProt Q96PY6)
[40] = target: STK33 (human) (UniProt Q9BYT3)
Chain of STK33 (human) (Q9BYT3 whole entry, looked up): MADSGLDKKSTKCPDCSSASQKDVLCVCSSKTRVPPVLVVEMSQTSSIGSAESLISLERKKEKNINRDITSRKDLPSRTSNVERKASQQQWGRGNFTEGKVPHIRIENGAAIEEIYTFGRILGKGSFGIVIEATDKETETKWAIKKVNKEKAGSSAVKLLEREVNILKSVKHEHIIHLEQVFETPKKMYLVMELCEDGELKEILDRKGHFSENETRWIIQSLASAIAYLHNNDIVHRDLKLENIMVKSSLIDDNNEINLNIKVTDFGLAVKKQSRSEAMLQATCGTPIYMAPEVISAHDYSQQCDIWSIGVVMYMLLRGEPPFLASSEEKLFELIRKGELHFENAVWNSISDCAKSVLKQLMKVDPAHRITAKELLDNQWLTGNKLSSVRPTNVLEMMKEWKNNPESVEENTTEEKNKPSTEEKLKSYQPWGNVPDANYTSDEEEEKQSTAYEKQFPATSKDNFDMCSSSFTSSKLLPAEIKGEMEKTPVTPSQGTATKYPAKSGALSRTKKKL

Chain of EPHB1 (human) (P54762 whole entry, looked up): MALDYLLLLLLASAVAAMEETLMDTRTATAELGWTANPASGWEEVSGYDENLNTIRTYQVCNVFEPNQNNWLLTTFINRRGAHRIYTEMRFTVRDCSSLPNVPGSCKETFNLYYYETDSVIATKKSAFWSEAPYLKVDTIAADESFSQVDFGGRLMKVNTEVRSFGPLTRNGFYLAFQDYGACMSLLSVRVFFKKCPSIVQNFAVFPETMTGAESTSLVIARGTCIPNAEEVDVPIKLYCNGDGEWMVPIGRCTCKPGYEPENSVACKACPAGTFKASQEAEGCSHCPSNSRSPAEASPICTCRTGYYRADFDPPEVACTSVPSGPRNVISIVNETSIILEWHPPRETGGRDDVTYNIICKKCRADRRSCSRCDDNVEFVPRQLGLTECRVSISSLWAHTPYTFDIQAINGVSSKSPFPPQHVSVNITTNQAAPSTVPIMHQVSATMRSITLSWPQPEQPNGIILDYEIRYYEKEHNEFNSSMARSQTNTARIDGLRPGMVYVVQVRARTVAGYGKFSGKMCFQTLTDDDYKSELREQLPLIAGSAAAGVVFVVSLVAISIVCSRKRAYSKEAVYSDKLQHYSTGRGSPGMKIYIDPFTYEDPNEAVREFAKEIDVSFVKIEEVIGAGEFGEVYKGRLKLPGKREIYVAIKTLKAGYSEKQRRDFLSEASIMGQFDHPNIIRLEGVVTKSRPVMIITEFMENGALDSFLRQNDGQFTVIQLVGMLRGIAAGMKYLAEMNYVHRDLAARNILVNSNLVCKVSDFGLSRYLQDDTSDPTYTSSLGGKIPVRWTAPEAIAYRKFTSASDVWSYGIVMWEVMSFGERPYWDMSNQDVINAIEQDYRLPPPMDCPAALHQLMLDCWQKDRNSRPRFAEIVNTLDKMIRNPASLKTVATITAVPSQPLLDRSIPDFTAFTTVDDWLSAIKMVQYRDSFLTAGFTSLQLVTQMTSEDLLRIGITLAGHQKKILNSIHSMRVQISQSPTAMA
Chain of CSNK2A1 (human) (P68400 whole entry, looked up): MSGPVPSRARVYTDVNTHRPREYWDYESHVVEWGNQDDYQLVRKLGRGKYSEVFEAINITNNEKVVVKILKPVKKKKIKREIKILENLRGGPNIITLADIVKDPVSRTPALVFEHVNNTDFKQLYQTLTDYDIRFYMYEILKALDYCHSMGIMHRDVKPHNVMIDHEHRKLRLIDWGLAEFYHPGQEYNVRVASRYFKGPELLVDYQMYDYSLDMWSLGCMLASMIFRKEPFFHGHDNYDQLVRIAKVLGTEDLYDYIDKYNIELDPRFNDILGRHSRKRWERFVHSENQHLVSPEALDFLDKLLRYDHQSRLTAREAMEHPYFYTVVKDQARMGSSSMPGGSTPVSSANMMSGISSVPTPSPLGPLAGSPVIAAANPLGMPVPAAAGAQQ
Chain of ANKK1 (human) (Q8NFD2 whole entry, looked up): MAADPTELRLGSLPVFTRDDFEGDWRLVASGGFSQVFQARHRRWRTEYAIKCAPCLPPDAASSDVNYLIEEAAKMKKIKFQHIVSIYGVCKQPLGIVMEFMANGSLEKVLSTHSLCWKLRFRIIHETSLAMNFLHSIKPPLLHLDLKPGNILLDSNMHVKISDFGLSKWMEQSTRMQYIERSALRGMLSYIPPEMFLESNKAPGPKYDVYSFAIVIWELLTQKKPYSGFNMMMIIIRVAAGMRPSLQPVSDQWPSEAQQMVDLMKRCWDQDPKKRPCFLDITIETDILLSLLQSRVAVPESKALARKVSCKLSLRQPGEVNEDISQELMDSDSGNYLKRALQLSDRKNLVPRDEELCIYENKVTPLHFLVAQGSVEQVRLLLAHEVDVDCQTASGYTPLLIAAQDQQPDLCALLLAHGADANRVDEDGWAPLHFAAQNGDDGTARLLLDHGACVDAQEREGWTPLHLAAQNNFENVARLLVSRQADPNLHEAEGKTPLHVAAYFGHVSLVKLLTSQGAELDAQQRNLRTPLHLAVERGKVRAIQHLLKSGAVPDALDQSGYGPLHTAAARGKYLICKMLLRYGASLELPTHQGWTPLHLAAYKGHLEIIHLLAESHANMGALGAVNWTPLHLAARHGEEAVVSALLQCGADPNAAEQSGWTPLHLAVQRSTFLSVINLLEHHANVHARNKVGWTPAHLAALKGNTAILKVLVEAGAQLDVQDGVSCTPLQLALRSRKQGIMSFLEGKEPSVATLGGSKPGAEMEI
Chain of ACVR2A (human) (P27037 whole entry, looked up): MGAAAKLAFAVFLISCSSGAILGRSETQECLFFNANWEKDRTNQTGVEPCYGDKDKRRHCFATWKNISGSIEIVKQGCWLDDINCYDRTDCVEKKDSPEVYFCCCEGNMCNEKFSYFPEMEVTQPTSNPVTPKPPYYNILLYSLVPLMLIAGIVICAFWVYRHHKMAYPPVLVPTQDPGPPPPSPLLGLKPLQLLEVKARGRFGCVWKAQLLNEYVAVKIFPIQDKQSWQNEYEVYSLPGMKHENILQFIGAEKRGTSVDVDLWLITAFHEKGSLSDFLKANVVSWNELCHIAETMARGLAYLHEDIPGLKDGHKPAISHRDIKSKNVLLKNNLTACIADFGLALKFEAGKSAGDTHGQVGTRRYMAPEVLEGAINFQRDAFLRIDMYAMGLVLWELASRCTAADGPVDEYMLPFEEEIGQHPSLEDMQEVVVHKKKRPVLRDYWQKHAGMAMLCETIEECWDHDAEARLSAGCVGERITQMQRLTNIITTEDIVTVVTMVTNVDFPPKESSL
Chain of LATS2 (human) (Q9NRM7 whole entry, looked up): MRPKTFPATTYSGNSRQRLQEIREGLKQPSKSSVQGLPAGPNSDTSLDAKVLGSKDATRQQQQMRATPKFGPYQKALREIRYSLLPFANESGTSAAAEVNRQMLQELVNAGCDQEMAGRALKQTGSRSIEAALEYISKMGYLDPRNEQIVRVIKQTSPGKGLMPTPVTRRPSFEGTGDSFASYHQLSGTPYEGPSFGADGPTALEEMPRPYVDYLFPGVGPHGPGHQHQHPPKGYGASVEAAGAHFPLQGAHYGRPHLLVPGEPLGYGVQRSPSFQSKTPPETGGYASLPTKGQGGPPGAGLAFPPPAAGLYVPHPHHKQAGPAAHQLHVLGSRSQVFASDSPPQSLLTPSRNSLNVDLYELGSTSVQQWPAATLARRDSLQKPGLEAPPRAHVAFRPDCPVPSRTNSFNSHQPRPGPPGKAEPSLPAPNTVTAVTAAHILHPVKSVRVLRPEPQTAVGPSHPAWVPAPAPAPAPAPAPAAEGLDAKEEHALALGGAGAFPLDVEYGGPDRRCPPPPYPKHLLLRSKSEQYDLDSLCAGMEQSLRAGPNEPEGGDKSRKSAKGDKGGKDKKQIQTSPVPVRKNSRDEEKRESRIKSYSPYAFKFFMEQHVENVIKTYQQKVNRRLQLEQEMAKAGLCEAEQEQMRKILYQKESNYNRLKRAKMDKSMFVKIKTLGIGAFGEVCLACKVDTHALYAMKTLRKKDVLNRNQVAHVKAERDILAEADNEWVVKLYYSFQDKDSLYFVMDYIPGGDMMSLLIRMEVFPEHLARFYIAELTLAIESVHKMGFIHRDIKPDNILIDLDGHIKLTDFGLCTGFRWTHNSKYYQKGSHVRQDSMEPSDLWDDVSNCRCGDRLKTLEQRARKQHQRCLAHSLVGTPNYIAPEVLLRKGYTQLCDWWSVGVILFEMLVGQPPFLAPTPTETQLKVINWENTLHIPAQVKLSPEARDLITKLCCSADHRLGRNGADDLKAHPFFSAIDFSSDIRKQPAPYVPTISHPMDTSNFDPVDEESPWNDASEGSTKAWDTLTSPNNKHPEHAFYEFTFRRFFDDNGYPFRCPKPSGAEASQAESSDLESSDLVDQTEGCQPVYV
Chain of CLK2 (human) (P49760 whole entry, looked up): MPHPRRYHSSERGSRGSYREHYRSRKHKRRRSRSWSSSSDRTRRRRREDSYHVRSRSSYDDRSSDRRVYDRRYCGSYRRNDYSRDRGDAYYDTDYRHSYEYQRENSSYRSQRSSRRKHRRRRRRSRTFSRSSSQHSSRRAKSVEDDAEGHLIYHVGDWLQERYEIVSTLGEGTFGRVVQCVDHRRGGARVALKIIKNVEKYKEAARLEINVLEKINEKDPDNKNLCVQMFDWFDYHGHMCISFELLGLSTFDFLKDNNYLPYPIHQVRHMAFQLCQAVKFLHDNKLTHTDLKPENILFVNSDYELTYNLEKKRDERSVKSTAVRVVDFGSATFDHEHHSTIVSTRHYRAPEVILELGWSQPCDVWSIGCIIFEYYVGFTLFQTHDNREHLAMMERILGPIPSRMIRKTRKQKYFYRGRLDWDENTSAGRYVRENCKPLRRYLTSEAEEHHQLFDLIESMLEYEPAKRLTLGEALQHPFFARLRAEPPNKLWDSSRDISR
Chain of CDK5 (human) (Q00535 whole entry, looked up): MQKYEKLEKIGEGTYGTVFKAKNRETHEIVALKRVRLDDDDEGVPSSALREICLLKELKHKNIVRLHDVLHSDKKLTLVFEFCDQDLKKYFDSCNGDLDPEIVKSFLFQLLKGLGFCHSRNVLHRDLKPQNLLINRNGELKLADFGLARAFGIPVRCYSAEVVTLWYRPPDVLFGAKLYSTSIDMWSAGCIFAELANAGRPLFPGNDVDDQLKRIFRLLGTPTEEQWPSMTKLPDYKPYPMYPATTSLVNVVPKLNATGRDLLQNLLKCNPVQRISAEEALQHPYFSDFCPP

Row | Compound | kinase still bound, per cent of control [2] [%] | kinase still bound, per cent of control [3] [%] | kinase still bound, per cent of control [4] [%] | kinase still bound, per cent of control [5] [%] | kinase still bound, per cent of control [6] [%] | kinase still bound, per cent of control [7] [%] | kinase still bound, per cent of control [8] [%] | kinase still bound, per cent of control [9] [%] | kinase still bound, per cent of control [10] [%] | kinase still bound, per cent of control [11] [%] | kinase still bound, per cent of control [12] [%] | kinase still bound, per cent of control [13] [%] | kinase still bound, per cent of control [14] [%] | kinase still bound, per cent of control [15] [%] | kinase still bound, per cent of control [16] [%] | kinase still bound, per cent of control [17] [%] | kinase still bound, per cent of control [18] [%] | kinase still bound, per cent of control [19] [%] | kinase still bound, per cent of control [22] [%] | kinase still bound, per cent of control [23] [%] | further results
1 | OCCCNc1cc(-c2ccnc(Nc3cccc(Cl)c3)n2)ccn1 | 100 | 100 | 100 | 100 | 100 | 2 | 100 | 100 | 100 | 100 | 100 | 100 | 100 | 100 | 100 | 100 | 100 | 100 | 100 | 100 | kinase still bound, per cent of control [1]: 100%; kinase still bound, per cent of control [20]: 100%; kinase still bound, per cent of control [21]: 100%; kinase still bound, per cent of control [24]: 100%; kinase still bound, per cent of control [25]: 100%; kinase still bound, per cent of control [26]: 100%; kinase still bound, per cent of control [27]: 100%; kinase still bound, per cent of control [28]: 100%; kinase still bound, per cent of control [29]: 100%; kinase still bound, per cent of control [30]: 100%; kinase still bound, per cent of control [31]: 100%; kinase still bound, per cent of control [32]: 100%; kinase still bound, per cent of control [33]: 100%; kinase still bound, per cent of control [34]: 100%; kinase still bound, per cent of control [35]: 100%; kinase still bound, per cent of control [36]: 100%; kinase still bound, per cent of control [37]: 0.3%; kinase still bound, per cent of control [38]: 100%; kinase still bound, per cent of control [39]: 100%
2 | COc1cc(N2CCN(C)CC2)ccc1Nc1nc(N)c(C(=O)c2c(Cl)cccc2Cl)s1 | 78 | 88 | 100 | 100 | 100 | 84 | 79 | 100 | 86 | 20 | 100 | 93 | 100 | 26 | 77 | 61 | 91 | 62 | 96 | 42 | kinase still bound, per cent of control [1]: 100%; kinase still bound, per cent of control [20]: 80%; kinase still bound, per cent of control [21]: 100%; kinase still bound, per cent of control [24]: 87%; kinase still bound, per cent of control [25]: 100%; kinase still bound, per cent of control [26]: 18%; kinase still bound, per cent of control [27]: 90%; kinase still bound, per cent of control [28]: 100%; kinase still bound, per cent of control [29]: 50%; kinase still bound, per cent of control [40]: 83%; kinase still bound, per cent of control [31]: 91%; kinase still bound, per cent of control [32]: 70%; kinase still bound, per cent of control [33]: 100%; kinase still bound, per cent of control [34]: 91%; kinase still bound, per cent of control [35]: 96%; kinase still bound, per cent of control [36]: 100%; kinase still bound, per cent of control [37]: 13%; kinase still bound, per cent of control [38]: 100%; kinase still bound, per cent of control [39]: 75%
3 | Cc1cc([C@@H](C)Nc2ccccc2C(=O)O)c2nc(N3CCOCC3)cc(=O)n2c1 | 96 | 100 | 100 | 100 | 98 | 100 | 71 | 63 | 97 | 75 | 100 | 96 | 100 | 100 | 92 | 100 | 100 | 88 | 100 | 100 | kinase still bound, per cent of control [1]: 100%; kinase still bound, per cent of control [21]: 100%; kinase still bound, per cent of control [24]: 98%; kinase still bound, per cent of control [25]: 66%; kinase still bound, per cent of control [26]: 70%; kinase still bound, per cent of control [27]: 100%; kinase still bound, per cent of control [28]: 85%; kinase still bound, per cent of control [29]: 100%; kinase still bound, per cent of control [30]: 94%; kinase still bound, per cent of control [40]: 100%; kinase still bound, per cent of control [31]: 100%; kinase still bound, per cent of control [32]: 100%; kinase still bound, per cent of control [33]: 86%; kinase still bound, per cent of control [34]: 100%; kinase still bound, per cent of control [35]: 100%; kinase still bound, per cent of control [36]: 100%; kinase still bound, per cent of control [37]: 70%; kinase still bound, per cent of control [38]: 91%; kinase still bound, per cent of control [39]: 85%
4 | O=C(O)c1ccc(Nc2ncc3c(n2)-c2ccc(Cl)cc2C(c2c(F)cccc2F)=NC3)cc1 | 96 | 100 | 34 | 58 | 1.9 | 90 | 36 | 72 | 1.6 | 69 | 79 | 0.3 | 52 | 100 | 84 | 100 | 29 | 35 | 100 | 100 | kinase still bound, per cent of control [20]: 30%; kinase still bound, per cent of control [24]: 2.2%; kinase still bound, per cent of control [25]: 57%; kinase still bound, per cent of control [26]: 95%; kinase still bound, per cent of control [27]: 93%; kinase still bound, per cent of control [28]: 80%; kinase still bound, per cent of control [29]: 79%; kinase still bound, per cent of control [30]: 95%; kinase still bound, per cent of control [40]: 100%; kinase still bound, per cent of control [31]: 47%; kinase still bound, per cent of control [32]: 100%; kinase still bound, per cent of control [33]: 100%; kinase still bound, per cent of control [34]: 80%; kinase still bound, per cent of control [35]: 84%; kinase still bound, per cent of control [36]: 100%; kinase still bound, per cent of control [37]: 7.4%; kinase still bound, per cent of control [38]: 70%; kinase still bound, per cent of control [39]: 56%

— the kinase profiling compilation of Christmann-Franck et al. (2016)
